Test results reported in paper PMC9501369, “Evaluation of Novel Inhibitors of Tryptophan Dioxygenases for Enzyme and Species Selectivity Using Engineered Tumour Cell Lines Expressing Either Murine or Human IDO1 or TDO2” (Pharmaceuticals, 2022).
Read-outs that look alike come from different tables or passages of the source.

Experiments:
human IDO1 [1] = molecular target: T1, human IDO1 (Homo sapiens, UniProt P14902); experiment: LLTC-hIDO1 cell-based assay (kynurenine in supernatant); set-up: host or cells: murine LLTC Lewis lung carcinoma cells
Description: (§1) Transfected LLTC cells constitutively expressing human IDO1 (LLTC-hIDO1) were established as previously described, by transfecting wild-type LLTC cells with pAd/CMV/V5-DEST with cDNA for human IDO1 (Invitrogen, Carlsbad, CA, USA). LLTC-mIDO1 cells that constitutive express murine IDO1 were established by transfection of wild-type LLTC with cDNA for murine IDO1 (courtesy of Dr Benoit van den Eynde). GL261 cells were similarly transfected to produce a line constitutively expressing human IDO1 (GL261-hIDO1), and a GL261-hTDO2 line expressing the human TDO2 gene (Source BioScience, Nottingham, England). Stable transfectants were maintained in αMEM with 10% FCS and selection antibiotics (2 µM puromycin for lines transfected with human dioxygenase genes, or 5 µg/mL blastocidin for LLTC-mIDO1 cells).
(§2) For the cell-based assays with engineered TDO2-expressing lines (10^4 cells per well), the α-MEM culture media was additionally supplemented with […] L-tryptophan. In brief, cells were cultured 24 h with the test compounds, and then supernatants from each well were transferred into fresh, flat-bottomed 96-well plates, mixed with trichloroacetic acid (10% final concentration) and incubated for 20 min, at 60 °C. Plates were centrifuged and supernatants transferred and mixed 1:1 with 4-(dimethylamino)benzaldehyde and the absorbance read at 480 nm as previously described. The inhibition of cellular enzyme activity at each drug concentration was calculated as a percent of control wells with no added drug.

human TDO2 = molecular target: T2, human TDO2 (Homo sapiens, UniProt P48775); experiment: GL261-hTDO2 cell-based assay (kynurenine in supernatant); settings: Table 2; for IC50: GL261-hTDO2 cells; for IC50 Ratio hTDO2/hIDO1: GL261-hTDO2 IC50 / LLTC-hIDO1 IC50, ^−1 marks inverse ratio
T2 construct: host or cells: murine GL261 glioma cells
Method: Each compound was tested in cell-based assays using LLTC-hIDO1 and GL261-hTDO2, respectively, for their potency at inhibiting human IDO1 and human TDO2.
as §1, §2

murine IDO1 = molecular target: T3, murine IDO1 (Mus musculus, UniProt P28776); experiment: LLTC-mIDO1 cell-based assay (kynurenine in supernatant)
T3 construct: expressed in transfected cells; host or cells: murine LLTC Lewis lung carcinoma cells
Description: as §1, §2

GL261-hIDO1 tumours [2] = experiment: K:T ratios in plasma and tumour of mice with GL261-hIDO1 tumours after single ip dose; type: in vivo, C57Bl/6 mice; settings: single ip 150 mg/kg
Method: C57Bl/6 mice were inoculated subcutaneously with 10^6 GL261-WT or GL261-hIDO1 cells in […] PBS into the left flank. […] In brief, 100µL of each plasma sample was mixed with 100µL of potassium phosphate buffer (0.05 M, pH 6) containing 100µM of the internal standard, 3-Nitro-L-Tyrosine (Sigma-Aldred, St Louis, MO, USA). Twenty-five µL of 2 mol/L trichloroacetic acid (Merck) was added to precipitate the proteins, and the samples were then vortexed and centrifuged at 12,000× g for 6 min, at room temperature. Standard calibration curves made from serial dilution of tryptophan (Sigma) and L-kynurenine (Sigma) were prepared with the same treatment as the samples. All supernatants collected after centrifugation were transferred into micro sampling vials and analysed for kynurenine and tryptophan as previously described by HPLC (HP Agilent 1200, Agilent Technologies, Walbronn, Germany). Kynurenine and tryptophan concentrations in samples were calculated from the standard calibration curves and the kynurenine to tryptophan ratio (K:T) was calculated by dividing the concentration of kynurenine by the tryptophan concentration.

in vivo = settings: C57Bl/6, mouse, ip
GL261-hIDO1 tumours [3] = experiment: Growth of subcutaneous GL261-hIDO1 tumours under daily ip treatment; type: in vivo; settings: daily ip 75, 100 and 150 mg/kg, C57Bl/6 mice
Method: C57Bl/6 mice bred at the Vernon Jansen Unit, University of Auckland were used as the hosts for the growth of GL261 and LLTC tumours. Unless stated, first-generation tumours, initiated by injecting 10^6 cells in 100 µL medium subcutaneously into the left flank of each mouse were used for experiments. […] Tumours were measured thrice weekly, and tumour volumes were calculated as 0.52a^2b, where a and b are the minor and major axes of the tumour.
C57Bl/6 mice were inoculated subcutaneously into the left flank with 10^6 GL261-hIDO1 cells and were randomised into treatment groups 6 days after inoculation when the tumours were approximately 3 × 3 mm in size. Mice with tumours were treated daily with ip injection of the inhibitor at a tolerated non-toxic dose, dissolved to the required concentration in 50 µL DMSO per mouse. Control groups received only DMSO (≤50 µL).

human IDO1 [4] = molecular target: T1, human IDO1; experiment: cell-free recombinant hIDO1 enzymatic assay; type: biochemical; settings: Figure 4, read-out: IC50 (enzyme assay)
[5] = Table 2, LLTC-hIDO1 cells, read-out: IC50 (µM) LLTC-hIDO1
[6] = LLTC-hIDO1 cell assay vs recombinant hIDO1 enzymatic assay
[7] = Table 1, LLTC-hIDO1 cells, 24 h culture with compound, read-out: IC50 (µM) LLTC-hIDO1
[8] = Table 1, LLTC-mIDO1 cells, 24 h culture with compound, read-out: IC50 (µM) LLTC-mIDO1
[9] = mice with 16-day GL261-hIDO1 tumours

T2 sequence (P48775 whole entry): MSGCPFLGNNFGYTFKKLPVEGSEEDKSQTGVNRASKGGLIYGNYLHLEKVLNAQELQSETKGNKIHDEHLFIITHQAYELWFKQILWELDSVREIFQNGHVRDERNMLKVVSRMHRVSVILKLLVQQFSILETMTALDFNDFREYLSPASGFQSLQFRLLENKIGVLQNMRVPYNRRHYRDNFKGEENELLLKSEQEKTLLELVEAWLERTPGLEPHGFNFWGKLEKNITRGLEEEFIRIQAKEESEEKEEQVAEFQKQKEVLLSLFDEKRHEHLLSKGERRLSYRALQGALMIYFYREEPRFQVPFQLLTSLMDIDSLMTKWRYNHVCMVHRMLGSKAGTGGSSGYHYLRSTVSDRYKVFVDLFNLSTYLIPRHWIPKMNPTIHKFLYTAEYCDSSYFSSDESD
T3 sequence (P28776 whole entry): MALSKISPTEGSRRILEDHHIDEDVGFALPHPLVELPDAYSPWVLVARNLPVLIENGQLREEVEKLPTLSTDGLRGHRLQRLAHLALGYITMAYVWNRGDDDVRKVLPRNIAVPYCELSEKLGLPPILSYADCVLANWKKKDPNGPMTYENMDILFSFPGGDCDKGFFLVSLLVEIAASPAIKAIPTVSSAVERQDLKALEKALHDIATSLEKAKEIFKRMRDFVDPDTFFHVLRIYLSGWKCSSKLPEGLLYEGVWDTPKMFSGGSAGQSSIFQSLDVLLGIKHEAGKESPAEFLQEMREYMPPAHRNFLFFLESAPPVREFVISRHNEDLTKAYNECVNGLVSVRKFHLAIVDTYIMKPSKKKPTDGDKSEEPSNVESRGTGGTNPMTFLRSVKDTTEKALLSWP
T1 sequence (P14902 whole entry): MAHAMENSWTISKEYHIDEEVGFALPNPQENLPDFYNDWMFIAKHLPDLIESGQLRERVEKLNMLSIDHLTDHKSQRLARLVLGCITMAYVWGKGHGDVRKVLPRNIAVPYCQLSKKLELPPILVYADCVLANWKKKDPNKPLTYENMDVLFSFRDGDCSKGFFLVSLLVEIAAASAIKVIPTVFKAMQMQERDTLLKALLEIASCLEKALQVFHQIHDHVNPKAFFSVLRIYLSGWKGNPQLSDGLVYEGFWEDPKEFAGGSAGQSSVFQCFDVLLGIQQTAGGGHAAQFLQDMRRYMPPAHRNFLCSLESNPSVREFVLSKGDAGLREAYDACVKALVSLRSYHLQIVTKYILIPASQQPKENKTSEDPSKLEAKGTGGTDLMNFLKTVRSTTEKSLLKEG

| SMILES | IC50 (human IDO1 [1]; [5]) [µM] | IC50 (human TDO2) [µM] | IC50 (human IDO1 [1]; [7]) [µM] | IC50 (murine IDO1; [8]) [µM] | further results |
| --- | --- | --- | --- | --- | --- |
| Nc1noc2ncc([N+](=O)[O-])cc12 [SN37318] | 0.92 | 0.68 |  |  |  |
| Nc1nonc1/C(=N\O)Nc1ccc(F)c(Cl)c1 [INCB14934, reference compound] |  | 6.08 |  |  | titration curve in the cell-assay compared to that in the enzymatic assay (human IDO1 [1]; [6]): very similar; IC50 (murine IDO1): 0.12 µM |
| Cc1cc(Cl)nc2onc(N)c12 [SN37313] | 0.06 | 4.14 |  |  | IC50 Ratio hTDO2/hIDO1 (human TDO2): 67 |
| CCn1cc(-c2c(N)sc(NC(=O)c3ccccc3)c2C#N)c(C)n1 [Compound W-0020339] |  |  | 11.6 | 50.5 |  |
| Nc1noc2nc3ccccc3cc12 [SN36500] | 2.11 | 1.58 |  |  |  |
| C/C(=N\Nc1ccc(F)cc1F)c1cc2ccccc2o1 [Compound W-0079399] |  |  | 41.2 | 25 |  |
| Nc1noc2nc(C(F)(F)F)ccc12 [SN37159] | 1.14 | 1.81 |  |  | IC50 Ratio hTDO2/hIDO1 (human TDO2): 1.6 |
| Cc1nc2onc(N)c2c(C)c1Br [SN36494] | 0.3 | 14.1 |  |  | IC50 Ratio hTDO2/hIDO1 (human TDO2): 47 |
| Fc1ccc(N/N=C/c2sc(N3CCOCC3)nc2-c2ccccc2)cc1 [Compound W-0079497] |  |  | 3.45 | 3.03 |  |
| C/C(=N\Nc1ccc(C)c(Cl)c1)c1ccncc1 [Compound W-0079341] |  |  | 17.1 | 10.3 |  |
| C/C(=N\Nc1ccc(F)cc1F)c1cccs1 [Compound W-0079326] |  |  | 10.1 | 13.1 |  |
| CC1=C/C(=N\Nc2ccccc2Cl)CC1 [Compound W-0079433] |  |  | 5.33 | 13.3 |  |
| Cc1ccc(N/N=C2/CCCNC2=O)cc1 [Compound W-0011320] |  |  | 17.9 | 11.3 |  |
| COc1cc(/C(C)=N/Nc2ccc(Cl)c(Cl)c2)cc(OC)c1OC [Compound W-0079409] |  |  | 6.74 | 16 |  |
| C/C(=N\Nc1ccc(F)cc1F)c1ccc(N2CCOCC2)cc1 [Compound W-0079400] |  |  | 20.8 | 12.9 |  |
| Cc1nc2onc(NC(=O)Nc3ccccc3)c2c(C)c1Cl [SN37705] | 2.06 | 175 |  |  | IC50 Ratio hTDO2/hIDO1 (human TDO2): 85 |
| Nc1noc2nc(-c3ccccc3)ccc12 [SN36796] | 4.38 | 37 |  |  | IC50 Ratio hTDO2/hIDO1 (human TDO2): 8 |
| N#Cc1c(NC(=O)c2ccccc2)sc(N)c1-c1cccs1 [Compound W-0003891] |  |  | 2.56 | 22.5 |  |
| Nc1noc2ncncc12 [SN36704] | 8.67 | 1.07 |  |  |  |
| CC(C)N1CCC(=NNc2ccc(Cl)c(Cl)c2)CC1 [Compound W-0079407] |  |  | 3.39 | 1.87 |  |
| O=C(O)c1coc2c1C(=NNc1ccccc1)CCC2 [Compound W-0011387] |  |  | 3.19 | 1.32 |  |
| COc1ccc2c(N)noc2n1 [SN37057] | 8.88 | 10.7 |  |  | IC50 Ratio hTDO2/hIDO1 (human TDO2): 1.2 |
| NC(=O)SCC(=O)Nc1ccc(F)cc1 [Compound W-0013201] |  |  | 20.1 | 20 |  |
| Nc1noc2ncc(Cl)cc12 [SN36499] | 0.7 | 0.11 |  |  |  |
| Cc1ccc(C)c(C2=Nn3c(COc4ccccc4F)nnc3SC2C)c1 (stereo not drawn) [Compound W-0080549] |  |  | 31.6 | 70.7 |  |
| c1ccc2c(c1)Nc1ccccc1O2 [Compound W-0020227] |  |  |  |  | IC50 (human IDO1 [1]): 1.52 µM; IC50 (murine IDO1): 3.1 µM |
| Cc1nc2onc(N)c2c(C)c1Cl [Compound W-0019482] | 0.09 | 15.2 | 0.08 | 0.01 | IC50 (human IDO1 [1]; Figure 4, LLTC-hIDO1 cell-based assay, read-out: IC50 (cell assay)): 0.0661 µM; fold more potent in the cell-based assay compared to activity against the enzyme (human IDO1 [1]; [6]): 30 fold; K:T ratio in the tumour, returned to % of that in mice without treatment (GL261-hIDO1 tumours [2]; GL261-hIDO1 tumours, time point not given): approximately 50%; K:T ratio in plasma (GL261-hIDO1 tumours [2]; [9]): reduced within an hour; K:T ratio in tumour (GL261-hIDO1 tumours [2]; [9]): reduced within an hour; MTD (in vivo): 150 mg/kg; growth of subcutaneous GL261-hIDO1 tumours (GL261-hIDO1 tumours [3]): delayed the growth; IC50 (human IDO1 [4]): 1850 nM; IC50 Ratio hTDO2/hIDO1 (human TDO2): 169 |
| Nc1noc2ncc(I)cc12 [SN36896] | 0.64 | 0.11 |  |  |  |
| Fc1ccc(N/N=C2/CCCc3ccccc32)c(F)c1 [Compound W-0125931] |  |  | 6.04 | 5.83 |  |
| Nc1noc2ncc(Br)cc12 [SN36458] | 0.66 | 0.08 |  |  |  |
